In brackets after ≈: the same amount, converted by molar mass.
Settings: buffer; pH 7.4; 200.0 µM

Structure (SMILES) | solubility kinetic [µg/mL]
CCCCNC(=O)N1CCN(C(c2ccccc2)c2ccccc2)CC1 | 5 (≈ 14.2 µM)
COc1ccc(C2NC(=O)CCC2[N+](=O)[O-])c(OC)c1 (stereo not drawn) | > 42
C[C@H](NC(N)=O)C(=O)OCC(=O)NCc1cccs1 | > 42.8
O=C(CN1C(=O)NC2(CCCCCCC2)C1=O)NCc1ccccc1 | 47.7 (≈ 139 µM)
COc1ccc(NC(=O)C2(c3cccs3)CCOCC2)cc1 | 36.4 (≈ 115 µM)
O=C1Nc2c(ccc(Cl)c2Cl)C(=O)C1(F)c1ccccc1 (stereo not drawn) | < 0.7
CCn1c(SCc2ccc(F)cc2)nc2c(c1=O)SCC2 | 0.9 (≈ 2.79 µM)
N#Cc1cc([N+](=O)[O-])ccc1NCCc1ccccn1 | > 40.2
COc1ccccc1Oc1nc([N+](=O)[O-])nn1CC(N)=O | > 44
Br.CCSC(=Nc1ccccc1)N1CCOCC1 | 43.9
Cc1ccc(NC(=O)COC(=O)[C@@H]2CC(O)CN2S(=O)(=O)c2ccc3c(c2)OCCO3)cc1 (stereo partly drawn) | > 71.5
COc1ccc2[nH]c(C)c(-c3csc(N)n3)c2c1 | 31.3 (≈ 121 µM)
O=C(O)c1cc([N+](=O)[O-])ccc1NCc1ccccc1Cl | 45 (≈ 147 µM)
FC(F)(F)c1cccc(NC(=S)N2CCCC2)c1 | > 41.1
Cc1nc(SCC(=O)NCC2CCCO2)[nH]c(=O)c1C (stereo not drawn) | > 44.6
O=C(Nc1cccc(C(=O)O)c1)Nc1cccc2ccccc12 | > 45.9
O=C(NCC1CCCCC1)c1ccc(=O)[nH]c1 | > 35.1
c1ccc(-n2ccnc2)cc1 | 19.7 (≈ 137 µM)
COc1ccc(NC(=S)NC(=O)c2ccc3c(c2)OCCO3)cc1 | 2.1 (≈ 6.1 µM)
CN(Cc1ccccc1)c1c([N+](=O)[O-])c(=O)n(C)c2ccccc12 | 2.7 (≈ 8.35 µM)
O=C(Nc1ncc([N+](=O)[O-])s1)c1cccs1 | 37.2 (≈ 146 µM)
Cc1ccc(N2C(=O)NC(=O)/C(=C\C=C\c3ccco3)C2=O)cc1 | 8.8 (≈ 27.3 µM)
Cc1ccc(C2C(=O)NC(=O)NC2=O)cc1 | 27.7 (≈ 127 µM)
COc1ccc(OC)c(/C=C2\N=C(c3ccccc3)OC2=O)c1 | 0.8 (≈ 2.59 µM)

Structure (SMILES) | solubility kinetic [µg/mL]
O=C(OCC(=O)N1CCCC1=O)c1nc(Cl)c(Cl)c(Cl)c1Cl | 32.9 (≈ 85.2 µM)
O=C(OCc1ccc([N+](=O)[O-])cc1)c1cc(=O)c2ccccc2o1 | 5.9 (≈ 18.1 µM)
OCC(O)C1OC(Nc2ccc(Cl)cc2)C(O)C1O (stereo not drawn) | > 43.5
Oc1ccc2ccccc2c1C=Nc1ccccc1 | < 0.5
O=C(NCCCNC(=O)c1ccco1)c1cccc(F)c1 | > 43.5
O=C(COC(=O)Cc1cccs1)Nc1cc(S(=O)(=O)N2CCOCC2)ccc1Cl | 56.5 (≈ 123 µM)
Cc1cc(C(=O)N(C)Cc2c(F)cccc2Cl)c2ccccc2n1 | 42.4 (≈ 124 µM)
COC(=O)C1CCN(C(=O)/C=C/c2ccc3c(c2)OCO3)CC1 | 34 (≈ 107 µM)
Cc1cc(SCc2ccc(Br)cc2)nc(=O)[nH]1 | 6 (≈ 19.3 µM)
CN1C=C/C(=C\c2cc[n+](C)c3ccccc23)c2ccccc21.[I-] | 40.1
COc1ccc(C(=O)NCCc2ccccc2)cc1OC | 40.1 (≈ 141 µM)
Cc1cc2c(sc3c(C)ccc(C)c32)c(C)n1.Cl | < 0.6
O=C(Nc1ccccn1)c1cc(-c2cccc(Cl)c2)nc2ccccc12 | < 0.3
COc1ccc2c(c1)-c1nc(/N=C/c3cccc(OC)c3O)sc1CC2 | > 55
CC(C)N1CCN(Cc2cnc(-c3ccccc3)s2)CC1CCO (stereo not drawn) | > 51.8
CC(C)c1ccc(NC(=S)NN2CCN(C)CC2)cc1 | > 43.9
N#Cc1ccc(OCC(=O)NC2CCCCCC2)cc1 | > 40.9
Cc1ccc(SCC(=O)NC2CC3CCC(C2)N3C)cc1 (stereo not drawn) | 45.1 (≈ 148 µM)
c1ccc(CCCN2CCOCC2)cc1 | 19.2 (≈ 93.5 µM)
COc1ccccc1CC(=O)NCCc1ccccc1 | > 40.4
Cc1cc(=O)[nH]c(SCC(=O)NCC2CCCO2)n1 (stereo not drawn) | > 42.5
O=c1oc(/C=C/c2ccccc2)nc2ccccc12 | 0.7 (≈ 2.81 µM)
Cc1cc(C(=O)OCC(=O)Nc2nccs2)c2ccccc2n1 | 6.8 (≈ 20.8 µM)
CCc1ccc(C(=O)NNC(=O)[C@H](C)NC(=O)c2ccco2)cc1 | > 49.4

Source: PubChem BioAssay AID1996
